Values belong to the molecule of their own block, whether it stands above or below them.
What was measured:
[1] = system: Ras processing in COS cells; test: Cell-based assay: COS cells, inhibition of Ras processing
Method: 2. Cell-Based Assay. COS IC50 values refer to the COS cells activity inhibition of Ras processing, are determined by the methods disclosed in […] or WO 95/10516.

[2] = target: T1, partially purified rat brain farnesyl protein transferase (FPT) (Rattus norvegicus, UniProt Q02293+Q04631); test: In vitro enzyme assay: inhibition of Ras-CVLS farnesylation by FPT; assay type: biochemical
T1 construct: partially purified rat brain farnesyl protein transferase (FPT); from tissue; host or cells: rat brain

Molecule: COC(=O)[C@H](COC(C)(C)C)NC(=O)N1CCC(CC(=O)N2CCC([C@H]3c4ncc(Br)cc4CCc4cc(Cl)cc(Br)c43)CC2)CC1 [Example 8]
IC50 [1]: 120 nM
IC50 [2]: 8.7 nM

Molecule: O=C(CC1CCN(C(=O)Nc2ccccc2)CC1)N1CCC([C@H]2c3ncc(Br)cc3CCc3cc(Cl)cc(Br)c32)CC1 [Example 2]
IC50 [1]: 33 nM
IC50 [2]: 5.4 nM

Molecule: CCCNC(=O)N1CCC(CC(=O)N2CCN(C3c4ccc(Cl)cc4CCc4cc(Br)cnc43)CC2)CC1 (stereo not shown) [Example 15, 4-[2-[4-(3-Bromo-8-chloro-6,11-dihydro-5H-benzo[5,6]cyclohepta[1,2-b]pyridin-11-yl)-1-piperazinyl]-2-oxoethyl]-N-propyl-1-piperidinecarboxamide]
IC50 [1]: 1500 nM
IC50 [2]: 100 nM

Molecule: COc1ccccc1NC(=O)N1CCC(CC(=O)N2CCC([C@H]3c4ncc(Br)cc4CCc4cc(Cl)cc(Br)c43)CC2)CC1 [Example 1]
IC50 [1]: 50 nM
IC50 [2]: 5.1 nM

Molecule: CCOC(=O)N1CCC(NC(=O)N2CCC(CC(=O)N3CCC([C@H]4c5ncc(Br)cc5CCc5cc(Cl)cc(Br)c54)CC3)CC2)CC1 [Example 6]
IC50 [1]: 20 nM
IC50 [2]: 1.7 nM

Molecule: CNC(=O)N1CCC(CC(=O)N2CCN(C3c4ccc(Cl)cc4CCc4cc(Br)cnc43)CC2)CC1 (stereo not shown) [Example 14, 4-[2-[4-(3-Bromo-8-chloro-6,11-dihydro-5H-benzo[5,6]-cyclohepta[1,2-b]pyridin-11-yl)-1-piperazinyl]-2-oxoethyl]-N-methyl-1-piperidinecarboxamide]
IC50 [1]: 750 nM
IC50 [2]: 50 nM

Molecule: (+)-Methyl alpha(S)-[[[4-[2-[4-[(3,10-dibromo-8-chloro-6,11-dihydro-5H-benzo[5,6]cyclohepta[1,2-b]pyridin-11(R)-yl)-1-piperidinyl]-2-oxoethyl]-1-piperidinyl]carbonyl]amino]-beta-methylbutanoate [Example 5]
IC50 [1]: 150 nM
IC50 [2]: 5 nM

Molecule: CC(C)(C)NC(=O)N1CCC(CC(=O)N2CCN(C3c4ccc(Cl)cc4CCc4cc(Br)cnc43)CC2)CC1 (stereo not shown) [Example 16, 4-[2-[4-(3-Bromo-8-chloro-6,11-dihydro-5H-benzo[5,6]cyclohepta[1,2-b]pyridin-11-yl)-1-piperazinyl]-2-oxoethyl]-N-(1,1-dimethylethyl)-1-piperidinecarboxamide]
IC50 [2]: 108 nM

Molecule: CCOC(=O)CNC(=O)N1CCC(CC(=O)N2CCC([C@H]3c4ncc(Br)cc4CCc4cc(Cl)cc(Br)c43)CC2)CC1 [Example 4]
IC50 [2]: 2 nM

Further lines, with some results ahead:

IC50 [2]: 4.6 nM
Molecule: NC(=O)[C@H](CO)NC(=O)N1CCC(CC(=O)N2CCC([C@H]3c4ncc(Br)cc4CCc4cc(Cl)cc(Br)c43)CC2)CC1 [Example 10]
IC50 [1]: 300 nM

IC50 [2]: 0.9 nM
Molecule: NC(=O)CNC(=O)N1CCC(CC(=O)N2CCC([C@H]3c4ncc(Br)cc4CCc4cc(Cl)cc(Br)c43)CC2)CC1 [Example 13]
IC50 [1]: 25 nM

IC50 [2]: 3.8 nM
Molecule: O=C(CC1CCN(C(=O)N(CCO)CCO)CC1)N1CCC([C@H]2c3ncc(Br)cc3CCc3cc(Cl)cc(Br)c32)CC1 [Example 7]
IC50 [1]: 18 nM

IC50 [2]: 1.9 nM
Molecule: CNC(=O)N1CCC(CC(=O)N2CCC([C@H]3c4ncc(Br)cc4CCc4cc(Cl)cc(Br)c43)CC2)CC1 [Example 3]

IC50 [2]: 3.3 nM
Molecule: COC(=O)[C@H](CO)NC(=O)N1CCC(CC(=O)N2CCC([C@H]3c4ncc(Br)cc4CCc4cc(Cl)cc(Br)c43)CC2)CC1 [Example 9]
IC50 [1]: 110 nM

IC50 [2]: 0.8 nM
Molecule: O=C(O)CNC(=O)N1CCC(CC(=O)N2CCC([C@H]3c4ncc(Br)cc4CCc4cc(Cl)cc(Br)c43)CC2)CC1 [Example 12]

IC50 [2]: 3.1 nM
Molecule: O=C(CC1CCN(C(=O)NCCO)CC1)N1CCC([C@H]2c3ncc(Br)cc3CCc3cc(Cl)cc(Br)c32)CC1 [Example 11]
IC50 [1]: 18 nM
